Legend:
Conditions in all cases: human; call rule not given here
Hepatotoxicity [1] = assay: FDA HLAED, lactate dehydrogenase (LDH) increase
Hepatotoxicity [2] = assay: FDA HLAED, serum glutamic oxaloacetic transaminase (SGOT) increase
Hepatotoxicity [3] = assay: FDA HLAED, gamma-glutamyl transferase (GGT) increase
Hepatotoxicity [4] = assay: FDA HLAED, serum glutamic pyruvic transaminase (SGPT) increase
Hepatotoxicity [5] = assay: FDA HLAED, alkaline phosphatase increase
Hepatotoxicity [6] = assay: FDA HLAED, liver enzyme composite activity
For GGT Increase - Index Value in this document: reference of the scale not given here.
For LDH Increase - Index Value in this document: reference of the scale not given here.

Row | Structure (SMILES) | LDH Increase - Activity Score (Hepatotoxicity [1]) | LDH Increase - Index Value (Hepatotoxicity [1]) | LDH Increase - Number of Reports (Hepatotoxicity [1]) | SGOT Increase - Activity Score (Hepatotoxicity [2]) | SGOT Increase - Index Value (Hepatotoxicity [2]) | SGOT Increase - Number of Reports (Hepatotoxicity [2]) | GGT Increase - Activity Score (Hepatotoxicity [3]) | GGT Increase - Index Value (Hepatotoxicity [3]) | GGT Increase - Number of Reports (Hepatotoxicity [3]) | SGPT Increase - Activity Score (Hepatotoxicity [4]) | SGPT Increase - Index Value (Hepatotoxicity [4]) | SGPT Increase - Number of Reports (Hepatotoxicity [4]) | Alkaline Phosphatase Increase - Activity Score (Hepatotoxicity [5]) | Alkaline Phosphatase Increase - Index Value (Hepatotoxicity [5]) | Alkaline Phosphatase Increase - Number of Reports (Hepatotoxicity [5]) | Composite Activity - Active (Hepatotoxicity [6]) | Composite Activity - Marginal (Hepatotoxicity [6]) | Composite Activity - Score (Hepatotoxicity [6])
1 | CO[C@@]1(NC(=O)Cc2cccs2)C(=O)N2C(C(=O)O)=C(COC(N)=O)CS[C@@H]21 [CEFOXITIN] | Inactive | 0 | < 4 | Inactive | 0 | < 4 | Inactive | 0 | < 4 | Inactive | 0 | < 4 | Inactive | 0 | < 4 | 0 | 0 | Inactive
2 | COCC1=C(C(=O)OC(C)OC(=O)OC(C)C)N2C(=O)[C@@H](NC(=O)/C(=N\OC)c3csc(N)n3)[C@H]2SC1 (stereo partly specified) [CEFPODOXIME PROXETIL] | Inactive | 0.2 | < 4 | Inactive | 1 | >= 4 | Inactive | 0.5 | < 4 | Inactive | 0.8 | >= 4 | Inactive | 1 | >= 4 | 0 | 0 | Inactive
3 | COCC1=C(C(=O)O)N2C(=O)[C@@H](NC(=O)/C(=N\OC)c3csc(N)n3)[C@H]2SC1 [CEFPODOXIME] | Inactive | 0.2 | < 4 | Inactive | 1 | >= 4 | Inactive | 0.5 | < 4 | Inactive | 0.8 | >= 4 | Inactive | 1 | >= 4 | 0 | 0 | Inactive
4 | CC=CC1=C(C(=O)O)N2C(=O)[C@@H](NC(=O)[C@H](N)c3ccc(O)cc3)[C@H]2SC1 [CEFPROZIL] | Inactive | 0.2 | >= 4 | Inactive | 0.4 | >= 4 | Inactive | 0.1 | < 4 | Inactive | 0.2 | >= 4 | Inactive | 0.2 | >= 4 | 0 | 0 | Inactive
5 | CC(C)(O/N=C(\C(=O)N[C@@H]1C(=O)N2C(C(=O)[O-])=C(C[n+]3ccccc3)CS[C@H]12)c1csc(N)n1)C(=O)O [CEFTAZIDIME] | Inactive | 0 | < 4 | Inactive | 0 | < 4 | Inactive | 0 | < 4 | Inactive | 0 | < 4 | Inactive | 0 | < 4 | 0 | 0 | Inactive
6 | Nc1nc(/C(=C/CC(=O)O)C(=O)N[C@@H]2C(=O)N3C(C(=O)O)=CCS[C@H]23)cs1 [CEFTIBUTEN] | Inactive | 0 | < 4 | Inactive | 0 | < 4 | Inactive | 0 | < 4 | Inactive | 0 | < 4 | Inactive | 0 | < 4 | 0 | 0 | Inactive
7 | CO/N=C(\C(=O)N[C@@H]1C(=O)N2C(C(=O)O)=CCS[C@H]12)c1csc(N)n1 [CEFTIZOXIME] | Inactive | 0.3 | < 4 | Active | 7.8 | >= 4 | Inactive | 0 | < 4 | Active | 4 | >= 4 | Inactive | 2.9 | >= 4 | 2 | 0 | Active
8 | CO/N=C(\C(=O)N[C@@H]1C(=O)N2C(C(=O)O)=C(CSc3nc(=O)c(=O)[nH]n3C)CS[C@H]12)c1csc(N)n1 [CEFTRIAXONE] | Inactive | 1.9 | >= 4 | Marginally Active | 3.8 | >= 4 | Inactive | 2.6 | >= 4 | Marginally Active | 3.8 | >= 4 | Marginally Active | 3.4 | >= 4 | 0 | 3 | Inactive
9 | CO/N=C(\C(=O)N[C@@H]1C(=O)N2C(C(=O)OC(C)OC(C)=O)=C(COC(N)=O)CS[C@H]12)c1ccco1 (stereo partly specified) [CEFUROXIME AXETIL] | Inactive | 0 | < 4 | Inactive | 0 | < 4 | Inactive | 0 | < 4 | Inactive | 0 | < 4 | Inactive | 0 | < 4 | 0 | 0 | Inactive
10 | CO/N=C(/C(=O)N[C@@H]1C(=O)N2C(C(=O)OC(C)OC(=O)C(C)(C)OC)=C(COC(N)=O)CS[C@H]12)c1ccco1 (stereo partly specified) [CEFUROXIME PIVOXETIL] | Inactive | 0 | < 4 | Inactive | 0 | < 4 | Inactive | 0 | < 4 | Inactive | 0 | < 4 | Inactive | 0 | < 4 | 0 | 0 | Inactive
11 | CO/N=C(\C(=O)N[C@@H]1C(=O)N2C(C(=O)O)=C(COC(N)=O)CS[C@H]12)c1ccco1 [CEFUROXIME] | Inactive | 0 | < 4 | Inactive | 0.2 | < 4 | Inactive | 0 | < 4 | Inactive | 0 | < 4 | Inactive | 0 | < 4 | 0 | 0 | Inactive
12 | CC(=O)OCC1=C(C(=O)O)N2C(=O)[C@@H](NC(=O)CSc3ccncc3)[C@H]2SC1 [CEPHAPIRIN] | Inactive | 0 | < 4 | Inactive | 0 | < 4 | Inactive | 0 | < 4 | Inactive | 0 | < 4 | Inactive | 0 | < 4 | 0 | 0 | Inactive
